Laboratory results published in patent US6451732B1, “Herbicidal compositions of glyphosate trimesium” (Syngenta, Limited, priority 1999, dated 2002).
Like-named read-outs stand apart in the source and are kept apart here.

Columns and labels:
[1] = tested on: glyphosate tolerant soybeans; settings: postemergence
Protocol: (§2) The soil was fortified with fertilizer (10-10-10) prior to seeding The compounds were dissolved in water and applied with a carrier volume of 200 L/ha. All treatments were replicated four times.
(§3) The pots were placed in a greenhouse and maintained under good growing conditions. The greenhouse evironmental systems provided the plants with natural and artificial lighting to attaim 12 hours of light per day. Day and night temperatures were maintained at 29° and 21° C. respectively.
(§4) Plants were grown to the V2 or 2 leaf stage prior to compound application. Plants were sprayed 30.5cm (12 inches) above the foliage with the spray solution as prepared for the pre-emergence test. Treated plants were then returned to a greenhouse and watered daily without wetting the foliage. Injury to plants was evaluated 5 days after treatment (“CDAT”) and 13 DAT. Injury was evaluated as percent control being the total injury to the plants due to all factors including: inhibited emergence, stunting, malformation, albinism, chlorosis, and other types of plant injury.

[2] = tested on: glyphosate tolerant corn; settings: postemergence
Protocol: as §2, §3, §4

[3] = tested on: glyphosate tolerant soybeans; test: Greenhouse postemergence injury to glyphosate tolerant soybeans, glyphosate trimesium and bentazon (Example 2)
Protocol: as §2, §3, §4

[4] = tested on: Ipomoea hederacea (IPOHE); test: Field plot injury rating (Example 3); format: in vivo; settings: Glyphosate TMS 1.5 lb/acre, with ammonium sulfate
From the text: (§1) In plots located in Champaign, Ill. (three replications), seeds of the following weed species were planted: Digitaria sanguinalis (“DIGSA”); Setaria faberi (“SETFA”); Setaria glauca (“SETLU”);Echinochloa crusgalli a crusgalli (“ECHCG”); Sorghum vulgare (“SORVU”); Sida spinosa (“SIDSP”); Ipomoea hederacea (“IPOHE”); Amaranthus retroflexus (“AMARE”); Xanthium strumarium (“XANST”); Helianthus annuns (“HELAN”) and Abutilon theophrasti (“ABUTH”). The plots were also planted with two varieties of glyphosate tolerant soybeans (“GLXMA P9294” and “GLXMA P9333”). When the soybeans had reached the 4-5 trifoliate stage, the plots were treated with glyphosate trimesium alone or glyphosate trimesium+bentazon, at the application rates indicated in Table 3. Injury to the species in each plot was tated 7 and 18 dats after application (DAA) of the glyphosate trimesium with or without bentazon and the results are shown in Table 3. The results shown in Table 3 are the mean of three replications.

[5] = tested on: Xanthium strumarium (XANST); test: Field plot injury rating (Example 3); format: in vivo; settings: Glyphosate TMS 1.5 lb/acre, with ammonium sulfate
From the text: as §1

[6] = tested on: Digitaria sanguinalis (DIGSA); test: Field plot injury rating (Example 3); format: in vivo; settings: Glyphosate TMS 1.5 lb/acre, with ammonium sulfate
From the text: as §1

[7] = tested on: Abutilon theophrasti (ABUTH); test: Field plot injury rating (Example 3); format: in vivo; settings: Glyphosate TMS 1.5 lb/acre, with ammonium sulfate
From the text: as §1

[8] = tested on: Echinochloa crusgalli (ECHCG); test: Field plot injury rating (Example 3); format: in vivo; settings: Glyphosate TMS 1.5 lb/acre, with ammonium sulfate
From the text: as §1

[9] = tested on: Setaria glauca (SETLU); test: Field plot injury rating (Example 3); format: in vivo; settings: Glyphosate TMS 1.5 lb/acre, with ammonium sulfate
From the text: as §1

[10] = tested on: Amaranthus retroflexus (AMARE); test: Field plot injury rating (Example 3); format: in vivo; settings: Glyphosate TMS 1.5 lb/acre, with ammonium sulfate
From the text: as §1

[11] = tested on: Helianthus annuns (HELAN); test: Field plot injury rating (Example 3); format: in vivo; settings: Glyphosate TMS 1.5 lb/acre, with ammonium sulfate
From the text: as §1

[12] = tested on: Setaria faberi (SETFA); test: Field plot injury rating (Example 3); format: in vivo; settings: Glyphosate TMS 1.5 lb/acre, with ammonium sulfate
From the text: as §1

[13] = tested on: Sida spinosa (SIDSP); test: Field plot injury rating (Example 3); format: in vivo; settings: Glyphosate TMS 1.5 lb/acre, with ammonium sulfate
From the text: as §1

[14] = tested on: Sorghum vulgare (SORVU); test: Field plot injury rating (Example 3); format: in vivo; settings: Glyphosate TMS 1.5 lb/acre, with ammonium sulfate
From the text: as §1

[15] = tested on: GLXMA P9294; test: Field plot injury rating (Example 3); format: in vivo, glyphosate tolerant soybeans; settings: Glyphosate TMS 1.5 lb/acre, with ammonium sulfate
From the text: as §1

[16] = tested on: GLXMA P9333; test: Field plot injury rating (Example 3); format: in vivo, glyphosate tolerant soybeans; settings: Glyphosate TMS 1.5 lb/acre, with ammonium sulfate
From the text: as §1

[17] = Glyphosate trimesium 750 g/ha, Bentazon 0 g/ha
[18] = Glyphosate trimesium 1500 g/ha, Bentazon 0 g/ha
[19] = Glyphosate trimesium 3000 g/ha, Bentazon 0 g/ha

## CC(C)N1C(=O)c2ccccc2NS1(=O)=O [Bentazon, bentazon]
[1]; TMS 0 g/ha, Bentazon 250 g/ha
  Soybean injury (percent control) 5 DAT: 2%
[1]; TMS 0 g/ha, Bentazon 500 g/ha
  Soybean injury (percent control) 5 DAT: 8%
[2]; TMS 0 g/ha, Bentazon 250 g/ha
  Corn injury (percent control) 5 DAT: 0%
  Corn injury (percent control) 13 DAT: 0%
[2]; TMS 0 g/ha, Bentazon 500 g/ha
  Corn injury (percent control) 5 DAT: 0%
  Corn injury (percent control) 13 DAT: 0%
[3]; Glyphosate trimesium 0 g/ha, Bentazon 4 g/ha
  Soybean injury (percent control) 5 DAT: 0%
[3]; Glyphosate trimesium 0 g/ha, Bentazon 8 g/ha
  Soybean injury (percent control) 5 DAT: 0%
[3]; Glyphosate trimesium 0 g/ha, Bentazon 16 g/ha
  Soybean injury (percent control) 5 DAT: 0%
[3]; Glyphosate trimesium 0 g/ha, Bentazon 32 g/ha
  Soybean injury (percent control) 5 DAT: 0%
[3]; Glyphosate trimesium 0 g/ha, Bentazon 64 g/ha
  Soybean injury (percent control) 5 DAT: 0%

## C[S+](C)C.[Cl-] [TMS, trimethylsulphonium chloride]
[1]; TMS 420 g/ha, Bentazon 0 g/ha
  Soybean injury (percent control) 5 DAT: 15%
  Soybean injury (percent control) 13 DAT: 13%
[1]; TMS 840 g/ha, Bentazon 0 g/ha
  Soybean injury (percent control) 5 DAT: 24%
  Soybean injury (percent control) 13 DAT: 18%
[2]; TMS 420 g/ha, Bentazon 0 g/ha
  Corn injury (percent control) 5 DAT: 14%
  Corn injury (percent control) 13 DAT: 48%
[2]; TMS 840 g/ha, Bentazon 0 g/ha
  Corn injury (percent control) 5 DAT: 19%
  Corn injury (percent control) 13 DAT: 60%

## C[S+](C)C.O=C([O-])CNCP(=O)(O)O [Glyphosate trimesium, trimethylsulphonium salt of N-phosphonomethylglycine]
[4]; 7 DAA
  Injury IPOHE 7 DAA: 43
[4]; 18 DAA
  Injury IPOHE 18 DAA: 68
[5]; 7 DAA
  Injury XANST 7 DAA: 99
[5]; 18 DAA
  Injury XANST 18 DAA: 100
[6]; 7 DAA
  Injury DIGSA 7 DAA: 99
[6]; 18 DAA
  Injury DIGSA 18 DAA: 100
[7]; 7 DAA
  Injury ABUTH 7 DAA: 40
[7]; 18 DAA
  Injury ABUTH 18 DAA: 80
[8]; 7 DAA
  Injury ECHCG 7 DAA: 67
[8]; 18 DAA
  Injury ECHCG 18 DAA: 94
[9]; 7 DAA
  Injury SETLU 7 DAA: 95
[9]; 18 DAA
  Injury SETLU 18 DAA: 100
[10]; 7 DAA
  Injury AMARE 7 DAA: 100
[10]; 18 DAA
  Injury AMARE 18 DAA: 100
[11]; 7 DAA
  Injury HELAN 7 DAA: 99
[11]; 18 DAA
  Injury HELAN 18 DAA: 100
[12]; 7 DAA
  Injury SETFA 7 DAA: 96
[12]; 18 DAA
  Injury SETFA 18 DAA: 100
[13]; 7 DAA
  Injury SIDSP 7 DAA: 60
[13]; 18 DAA
  Injury SIDSP 18 DAA: 83
[14]; 7 DAA
  Injury SORVU 7 DAA: 93
[14]; 18 DAA
  Injury SORVU 18 DAA: 100
[15]; 7 DAA
  Injury GLXMA P9294 7 DAA: 8
[15]; 18 DAA
  Injury GLXMA P9294 18 DAA: 9
[16]; 7 DAA
  Injury GLXMA P9333 7 DAA: 5
[16]; 18 DAA
  Injury GLXMA P9333 18 DAA: 6
[3]; [17]
  Soybean injury (percent control) 5 DAT: 13%
  Soybean injury (percent control) 13 DAT: 7%
[3]; [18]
  Soybean injury (percent control) 5 DAT: 37%
  Soybean injury (percent control) 13 DAT: 27%
[3]; [19]
  Soybean injury (percent control) 5 DAT: 58%
  Soybean injury (percent control) 13 DAT: 35%
